The text below walks through data of PMC11851430, “Workflow for E3 Ligase Ligand Validation for PROTAC Development” (ACS Chemical Biology, 2025).

The target in one assay is T1, CASKA (Homo sapiens, UniProt O14936).
T1 construct: purchased in-house DSF panel (SGC-style construct names; the trailing A/B is a construct suffix)
T1 sequence (O14936 1-337): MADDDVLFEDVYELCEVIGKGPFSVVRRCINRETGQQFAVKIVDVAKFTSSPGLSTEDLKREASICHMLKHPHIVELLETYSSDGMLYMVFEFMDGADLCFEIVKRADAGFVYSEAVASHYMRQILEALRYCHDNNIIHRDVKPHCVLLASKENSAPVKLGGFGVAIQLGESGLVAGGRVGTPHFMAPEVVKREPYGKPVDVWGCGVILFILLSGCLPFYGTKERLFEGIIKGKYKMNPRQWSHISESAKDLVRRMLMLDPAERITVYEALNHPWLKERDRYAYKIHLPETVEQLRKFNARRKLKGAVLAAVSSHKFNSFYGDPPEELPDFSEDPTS
In words: DSF assay. The assay is classed as binding. The conditions noted are these: 20 µM compound. (In general: Differential scanning fluorimetry follows unfolding on heating by fluorescence.)

The target of the next assay is T2, FGFR2A (Homo sapiens, UniProt P21802).
T2 construct: purchased in-house DSF panel (SGC-style construct names; the trailing A/B is a construct suffix)
As to the kind of experiment: DSF assay. The assay is classed as binding. Conditions: 20 µM compound.

The next assay has as its target T3, MAPK10A (Homo sapiens, UniProt P53779).
T3 construct: purchased in-house DSF panel (SGC-style construct names; the trailing A/B is a construct suffix)
As to the kind of experiment: DSF assay. The assay is classed as binding. Conditions: 20 µM compound.

For another assay, the target named is T4, MAPK13A (Homo sapiens, UniProt O15264).
T4 construct: purchased in-house DSF panel (SGC-style construct names; the trailing A/B is a construct suffix)
T4 sequence (O15264 1-365): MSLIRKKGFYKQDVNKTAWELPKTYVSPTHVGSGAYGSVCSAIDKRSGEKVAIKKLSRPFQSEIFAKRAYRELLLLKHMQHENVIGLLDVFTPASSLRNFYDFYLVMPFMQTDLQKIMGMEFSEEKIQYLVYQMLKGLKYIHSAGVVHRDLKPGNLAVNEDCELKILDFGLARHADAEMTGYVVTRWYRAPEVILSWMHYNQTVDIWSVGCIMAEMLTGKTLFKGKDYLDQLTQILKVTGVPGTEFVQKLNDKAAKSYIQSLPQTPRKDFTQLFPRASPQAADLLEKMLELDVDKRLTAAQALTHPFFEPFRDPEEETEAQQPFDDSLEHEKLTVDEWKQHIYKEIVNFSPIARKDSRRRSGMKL
As to the kind of experiment: DSF assay. Type of assay: binding. Conditions: 20 µM compound.

For a further assay, the target named is T5, MERTKA (Homo sapiens, UniProt Q12866).
T5 construct: purchased in-house DSF panel (SGC-style construct names; the trailing A/B is a construct suffix)
T5 sequence (Q12866 574-864): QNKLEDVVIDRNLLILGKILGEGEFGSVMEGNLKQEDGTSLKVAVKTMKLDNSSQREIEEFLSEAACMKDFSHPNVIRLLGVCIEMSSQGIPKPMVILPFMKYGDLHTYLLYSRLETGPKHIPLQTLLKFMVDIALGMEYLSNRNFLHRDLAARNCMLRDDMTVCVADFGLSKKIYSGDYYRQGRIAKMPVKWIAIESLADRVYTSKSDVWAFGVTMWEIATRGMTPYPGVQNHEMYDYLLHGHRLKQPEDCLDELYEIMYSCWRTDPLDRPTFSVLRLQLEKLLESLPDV
In words: DSF assay. The assay is classed as binding. The conditions noted are these: 20 µM compound.

Another assay has as its target T6, NEK7A (Homo sapiens, UniProt Q8TDX7).
T6 construct: purchased in-house DSF panel (SGC-style construct names; the trailing A/B is a construct suffix)
In words: DSF assay. Type of assay: binding. The conditions noted are these: 20 µM compound.

The next assay deals with TAF1A. In words: DSF assay. The assay is classed as binding. The conditions noted are these: 20 µM compound.
The target of another assay is T7, VRK1A (Homo sapiens, UniProt Q99986).
T7 construct: purchased in-house DSF panel (SGC-style construct names; the trailing A/B is a construct suffix)
T7 sequence (Q99986 1-396): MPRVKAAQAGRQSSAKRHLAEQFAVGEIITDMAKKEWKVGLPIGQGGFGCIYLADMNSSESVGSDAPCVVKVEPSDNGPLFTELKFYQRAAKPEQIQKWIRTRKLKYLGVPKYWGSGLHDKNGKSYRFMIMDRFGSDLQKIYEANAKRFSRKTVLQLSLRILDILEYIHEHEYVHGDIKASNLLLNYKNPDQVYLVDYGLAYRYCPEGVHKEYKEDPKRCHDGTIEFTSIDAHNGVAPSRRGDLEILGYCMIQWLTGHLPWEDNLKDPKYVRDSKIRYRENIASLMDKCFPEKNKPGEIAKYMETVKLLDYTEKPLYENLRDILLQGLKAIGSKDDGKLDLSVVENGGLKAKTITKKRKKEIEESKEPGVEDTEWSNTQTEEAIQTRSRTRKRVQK
In words: DSF assay. Type of assay: binding. The conditions noted are these: 20 µM compound.

For the next assay, the target named is T8, AURKA^HiBiT (Homo sapiens, UniProt O14965).
T8 construct: expressed in transfected cells
T8 sequence (O14965 1-403): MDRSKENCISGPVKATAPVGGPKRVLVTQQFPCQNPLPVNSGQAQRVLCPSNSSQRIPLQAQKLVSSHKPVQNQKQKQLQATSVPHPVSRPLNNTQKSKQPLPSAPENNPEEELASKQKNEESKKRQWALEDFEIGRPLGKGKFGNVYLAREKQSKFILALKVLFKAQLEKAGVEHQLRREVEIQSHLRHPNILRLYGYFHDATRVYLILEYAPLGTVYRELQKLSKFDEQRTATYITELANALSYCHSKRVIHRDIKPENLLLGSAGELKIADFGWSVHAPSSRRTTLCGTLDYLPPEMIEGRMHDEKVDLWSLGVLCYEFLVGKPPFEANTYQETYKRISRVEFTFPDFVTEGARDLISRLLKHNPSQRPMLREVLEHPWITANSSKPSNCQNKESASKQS
In words: HiBiT assay, MV4-11 cells expressing AURKA^HiBiT. The assay is classed as cell-based. The conditions noted are these: 6 h; for rescue of AURKA degradation by cotreatment with proteasome inhibitor MG132 / rescue of AURKA levels by cotreatment with neddylation inhibitor MLN4924: MV4-11 AURKA^HiBiT cells; for AURKA^HiBiT protein levels: MV4-11 cells. On the procedure:
The blots were incubated with respective primary antibodies at 1:1000 dilution (Cell Signaling technologies: Aurora A (D3E4Q), ITK (2F12) and GAPDH (D4C6R)) at 4 °C overnight. The blots were washed with TBS-T thrice and incubated with 1:5000 dilution of horseradish peroxidase (HRP)-labelled respective secondary antibodies (Cell Signaling technologies, Anti- […]
The blots were washed with TBS-T thrice and then incubated with chemiluminescent HRP substrate (Bio-Rad) for 2 minutes. The blots were imaged and the signals were detected using the Amersham ImageQuant 800 (Cytiva).
Cell culture. Human MV4-11 ([…]) and human Jurkat ([…]) cells were cultured in RPMI- […]
°C in 5% CO2. Both media were supplemented with 10% FBS and 1% penicillin/streptomycin. […]
Cell line generation. The stable cell line MV4-11 AURORA−HiBiT was generated as previously described.14 Lentiviral infection was used to generate the stable Jurkat HiBiT cell line. […] HiBiT Measurements. HiBiT assay was performed as described previously. 14 Briefly, MV4-11 and Jurkat HiBiT cells were seeded and treated with compounds for the indicated time. Nano-Glo HiBiT Lytic Detection System (Promega) was used for the assay and luminescence was measured on a Tecan Spark Multiplate reader (Tecan). DC50s were calculated using the dose-response (four parameters) equation in Prism (GraphPad).
(In general: With HiBiT, luminescence reflects the tagged protein that the partner subunit can reach.)

T6 sequence (Q8TDX7 34-299): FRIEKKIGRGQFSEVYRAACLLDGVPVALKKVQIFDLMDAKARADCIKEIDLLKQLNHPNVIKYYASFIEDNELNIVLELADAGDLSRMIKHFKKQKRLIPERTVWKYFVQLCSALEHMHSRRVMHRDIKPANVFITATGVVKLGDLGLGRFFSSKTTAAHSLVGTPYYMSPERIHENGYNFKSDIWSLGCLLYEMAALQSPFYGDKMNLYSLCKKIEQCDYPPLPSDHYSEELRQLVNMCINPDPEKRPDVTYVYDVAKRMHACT
T3 sequence (P53779 whole entry): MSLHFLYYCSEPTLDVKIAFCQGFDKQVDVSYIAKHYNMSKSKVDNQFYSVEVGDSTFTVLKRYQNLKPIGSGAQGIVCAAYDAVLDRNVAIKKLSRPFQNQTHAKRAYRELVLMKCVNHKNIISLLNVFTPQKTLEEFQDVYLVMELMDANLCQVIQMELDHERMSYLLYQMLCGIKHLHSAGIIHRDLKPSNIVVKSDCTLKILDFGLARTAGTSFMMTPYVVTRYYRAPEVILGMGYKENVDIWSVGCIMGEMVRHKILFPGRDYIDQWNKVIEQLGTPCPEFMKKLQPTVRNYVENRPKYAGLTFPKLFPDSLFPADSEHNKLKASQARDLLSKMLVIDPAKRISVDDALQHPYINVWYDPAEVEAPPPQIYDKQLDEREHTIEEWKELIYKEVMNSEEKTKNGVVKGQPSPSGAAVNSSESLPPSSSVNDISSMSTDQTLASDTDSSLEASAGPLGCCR
T2 sequence (P21802 458-770): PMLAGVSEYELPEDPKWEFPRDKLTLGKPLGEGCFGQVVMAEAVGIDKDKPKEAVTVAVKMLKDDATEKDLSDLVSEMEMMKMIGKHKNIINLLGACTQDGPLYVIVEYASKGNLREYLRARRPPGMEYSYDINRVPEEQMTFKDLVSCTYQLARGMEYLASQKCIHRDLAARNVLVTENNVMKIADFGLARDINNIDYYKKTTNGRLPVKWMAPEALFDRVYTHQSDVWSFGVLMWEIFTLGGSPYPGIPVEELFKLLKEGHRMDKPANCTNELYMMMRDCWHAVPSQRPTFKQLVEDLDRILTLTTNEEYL

On to `CCOC(=O)c1cc(Nc2cc(C3CC3)[nH]n2)nc(Nc2ccc(CC#N)cc2)n1` [compound 5], for which the shift in melting temperature (ΔTm) (usually the change in melting temperature against a reference sample) at 20 µM at CASKA is 1.91 °C; on FGFR2A it was 6.36 °C; at MAPK10A, 5.33 °C; on MAPK13A it was 3.76 °C; at MERTKA it was 2.06 °C; on NEK7A, 0.0755 °C. In addition, the ΔTm at 20 µM at VRK1A is 0.7 °C. The ΔTm in the assay with TAF1A amounted to 0.35 °C.

On to `Cc1ncsc1-c1ccc(CNC(=O)[C@@H]2C[C@@H](O)CN2C(=O)[C@@H](NC(=O)CCOCCOCCOCCN2CCN(c3cc(Nc4cc(C5CC5)[nH]n4)nc(Nc4ccc(CC#N)cc4)n3)CC2)C(C)(C)C)cc1` [4-a], for which, on AURKA^HiBiT, the “rescue of AURKA degradation by cotreatment with proteasome inhibitor MG132” value was “complete rescue”, the “rescue of AURKA levels by cotreatment with neddylation inhibitor MLN4924” value is “only partial rescue” and the “AURKA^HiBiT protein levels” value is recorded as “dose-dependent degradation of AURKA”.

On to `CC(C)(C)OC(=O)NCCOCCOCCOCCOCCC(=O)N1CCN(c2cc(Nc3cc(C4CC4)[nH]n3)nc(Nc3ccc(CC#N)cc3)n2)CC1` [4-L], for which the ΔTm at 20 µM was -0.0121 °C at CASKA; 7.61 °C on FGFR2A; 5.76 °C on MAPK10A; 3.4 °C at MAPK13A; 4.52 °C on MERTKA; 0.39 °C at NEK7A. Moreover, the shift in melting temperature (ΔTm) at 20 µM at VRK1A turned out to be 0.29 °C. Moreover, in the assay with TAF1A, the shift in melting temperature (ΔTm) is -0.59 °C.

`Cc1ncsc1-c1ccc(CNC(=O)[C@@H]2C[C@H](O)CN2C(=O)[C@@H](NC(=O)CCOCCOCCOCCOCCN2CCN(c3ccc(Nc4ncc(Cl)c(Nc5ccccc5C(N)=O)n4)cc3)CC2)C(C)(C)C)cc1` [6-b^neg]: at AURKA^HiBiT, the “AURKA^HiBiT protein levels” value is “weak reduction of AURKA levels”.

As to `Cc1ncsc1-c1ccc(CNC(=O)[C@@H]2C[C@H](O)CN2C(=O)[C@@H](NC(=O)CCOCCOCCOCCN2CCN(c3cc(Nc4cc(C5CC5)[nH]n4)nc(Nc4ccc(CC#N)cc4)n3)CC2)C(C)(C)C)cc1` [4-a^neg], at AURKA^HiBiT, the “AURKA^HiBiT protein levels” value is “weak reduction of AURKA levels”.

`Cc1ncsc1-c1ccc(CNC(=O)[C@@H]2C[C@@H](O)CN2C(=O)[C@@H](NC(=O)CCOCCOCCOCCOCCN2CCN(c3ccc(Nc4ncc(Cl)c(Nc5ccccc5C(N)=O)n4)cc3)CC2)C(C)(C)C)cc1` [6-b]: on AURKA^HiBiT, the “rescue of AURKA degradation by cotreatment with proteasome inhibitor MG132” value was “complete rescue”, the “rescue of AURKA levels by cotreatment with neddylation inhibitor MLN4924” value was “only partial rescue” and the “AURKA^HiBiT protein levels” value is “dose-dependent degradation of AURKA”.

`CC(C)(C)OC(=O)NCCCOCCOCCOCCCNC(=O)c1cc(Nc2cc(C3CC3)[nH]n2)nc(Nc2ccc(CC#N)cc2)n1` [5-L]: the ΔTm at 20 µM came to 1.29 °C at CASKA; 3.37 °C at FGFR2A; 6.08 °C at MAPK10A; 3.98 °C on MAPK13A; 2.15 °C on MERTKA; 0.5 °C at NEK7A. Moreover, on VRK1A, the shift in melting temperature (ΔTm) at 20 µM came out at 0.51 °C. In addition, the shift in melting temperature (ΔTm) with TAF1A stood at 0.26 °C.
